Source: ChEMBL document CHEMBL5696441 (Nat Chem Biol, 2011)

Tests used:
[1] = molecular target: Calcium/calmodulin-dependent protein kinase type II subunit gamma (Homo sapiens) (UniProt Q13555); test: Inhibition of CAMK2G (unknown origin) assessed as remaining activity at 1 uM by Kinome scan method relative to control
[2] = molecular target: Tyrosine-protein kinase Fes/Fps (Homo sapiens) (UniProt P07332); test: Inhibition of human FES assessed as residual activity at 1 uM using polyEY as substrate in presence of 33P-ATP by ProQinase assay relative to control
[3] = molecular target: Mitogen-activated protein kinase kinase kinase 11 (Homo sapiens) (UniProt Q16584); test: Inhibition of MLK3 (unknown origin) assessed as remaining activity at 1 uM by Kinome scan method relative to control
[4] = molecular target: Mitogen-activated protein kinase kinase kinase 6 (Homo sapiens) (UniProt O95382); test: Inhibition of ASK2 (unknown origin) assessed as remaining activity at 1 uM by Kinome scan method relative to control
[5] = molecular target: Activated CDC42 kinase 1 (Homo sapiens) (UniProt Q07912); test: Inhibition of TNK2 (unknown origin) assessed as remaining activity at 1 uM by Kinome scan method relative to control
Mus musculus = test: In vivo anti-inflammatory activity in Gal/LPS induced mouse assessed as inhibition in TNF-alpha release at 3 mg/kg, po administered for 1 hrs relative to control; assay type: functional
[6] = molecular target: Mitogen-activated protein kinase kinase kinase 20 (Homo sapiens) (UniProt Q9NYL2); test: Inhibition of human ZAK assessed as residual activity at 1 uM using MBP as substrate in presence of 33P-ATP by ProQinase assay relative to control
[7] = molecular target: Dual specificity tyrosine-phosphorylation-regulated kinase 4 (Homo sapiens) (UniProt Q9NR20); test: Inhibition of human DYRK4 assessed as residual activity at 1 uM using RBER-CHKtide as substrate in presence of 33P-ATP by ProQinase assay relative to control
[8] = molecular target: Insulin-like growth factor 1 receptor (Homo sapiens) (UniProt P08069); test: Inhibition of IGF1R (unknown origin) assessed as remaining activity at 1 uM by Kinome scan method relative to control
Insulin-like growth factor 1 receptor (Homo sapiens), sequence (P08069 31-736 limits assumed): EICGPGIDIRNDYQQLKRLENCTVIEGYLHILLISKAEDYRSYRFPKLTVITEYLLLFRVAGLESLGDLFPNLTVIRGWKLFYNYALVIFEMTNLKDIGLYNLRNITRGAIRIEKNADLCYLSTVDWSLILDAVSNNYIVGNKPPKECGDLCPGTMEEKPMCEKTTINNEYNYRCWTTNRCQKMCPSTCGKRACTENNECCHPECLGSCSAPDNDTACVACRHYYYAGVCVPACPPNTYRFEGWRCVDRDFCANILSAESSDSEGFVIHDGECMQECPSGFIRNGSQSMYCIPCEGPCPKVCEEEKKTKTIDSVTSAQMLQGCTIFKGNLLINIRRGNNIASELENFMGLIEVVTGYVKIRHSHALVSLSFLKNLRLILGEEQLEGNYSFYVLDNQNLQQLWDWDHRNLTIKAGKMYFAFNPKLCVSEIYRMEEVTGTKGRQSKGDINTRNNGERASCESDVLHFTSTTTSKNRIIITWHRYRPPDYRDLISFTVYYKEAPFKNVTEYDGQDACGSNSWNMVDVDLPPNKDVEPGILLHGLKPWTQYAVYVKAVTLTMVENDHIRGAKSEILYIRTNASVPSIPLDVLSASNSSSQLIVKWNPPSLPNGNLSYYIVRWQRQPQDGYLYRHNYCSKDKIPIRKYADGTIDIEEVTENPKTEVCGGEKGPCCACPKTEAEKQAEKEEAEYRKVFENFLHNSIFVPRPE
Insulin-like growth factor 1 receptor (Homo sapiens), sequence (P08069 741-1367 limits assumed): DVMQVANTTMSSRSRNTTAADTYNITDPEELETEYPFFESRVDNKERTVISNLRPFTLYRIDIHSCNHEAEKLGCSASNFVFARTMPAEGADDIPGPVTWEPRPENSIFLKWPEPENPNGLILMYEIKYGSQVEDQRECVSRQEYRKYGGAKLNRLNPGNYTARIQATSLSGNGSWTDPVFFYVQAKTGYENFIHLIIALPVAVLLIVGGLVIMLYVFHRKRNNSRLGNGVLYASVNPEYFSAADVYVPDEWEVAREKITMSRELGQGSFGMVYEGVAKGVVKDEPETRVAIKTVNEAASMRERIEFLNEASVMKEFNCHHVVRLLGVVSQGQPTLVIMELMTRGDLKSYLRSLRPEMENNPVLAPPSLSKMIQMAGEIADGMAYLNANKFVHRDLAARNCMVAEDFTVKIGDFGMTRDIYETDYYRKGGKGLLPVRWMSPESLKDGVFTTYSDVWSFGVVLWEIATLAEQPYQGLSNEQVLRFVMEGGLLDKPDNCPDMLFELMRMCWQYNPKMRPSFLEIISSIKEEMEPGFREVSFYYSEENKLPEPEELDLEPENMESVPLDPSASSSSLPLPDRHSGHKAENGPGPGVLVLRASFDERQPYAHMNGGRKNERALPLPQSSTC

[9] = molecular target: Mitogen-activated protein kinase kinase kinase 5 (Homo sapiens) (UniProt Q99683); test: Inhibition of ASK1 (unknown origin) assessed as remaining activity at 1 uM by Kinome scan method relative to control
[10] = molecular target: Ribosomal protein S6 kinase alpha-5 (Homo sapiens) (UniProt O75582); test: Inhibition of C-terminal kinase domain RPS6KA5 (unknown origin) assessed as remaining activity at 1 uM by Kinome scan method relative to control
Ribosomal protein S6 kinase alpha-5 (Homo sapiens), sequence (O75582 whole entry, looked up, the tested form may be a part): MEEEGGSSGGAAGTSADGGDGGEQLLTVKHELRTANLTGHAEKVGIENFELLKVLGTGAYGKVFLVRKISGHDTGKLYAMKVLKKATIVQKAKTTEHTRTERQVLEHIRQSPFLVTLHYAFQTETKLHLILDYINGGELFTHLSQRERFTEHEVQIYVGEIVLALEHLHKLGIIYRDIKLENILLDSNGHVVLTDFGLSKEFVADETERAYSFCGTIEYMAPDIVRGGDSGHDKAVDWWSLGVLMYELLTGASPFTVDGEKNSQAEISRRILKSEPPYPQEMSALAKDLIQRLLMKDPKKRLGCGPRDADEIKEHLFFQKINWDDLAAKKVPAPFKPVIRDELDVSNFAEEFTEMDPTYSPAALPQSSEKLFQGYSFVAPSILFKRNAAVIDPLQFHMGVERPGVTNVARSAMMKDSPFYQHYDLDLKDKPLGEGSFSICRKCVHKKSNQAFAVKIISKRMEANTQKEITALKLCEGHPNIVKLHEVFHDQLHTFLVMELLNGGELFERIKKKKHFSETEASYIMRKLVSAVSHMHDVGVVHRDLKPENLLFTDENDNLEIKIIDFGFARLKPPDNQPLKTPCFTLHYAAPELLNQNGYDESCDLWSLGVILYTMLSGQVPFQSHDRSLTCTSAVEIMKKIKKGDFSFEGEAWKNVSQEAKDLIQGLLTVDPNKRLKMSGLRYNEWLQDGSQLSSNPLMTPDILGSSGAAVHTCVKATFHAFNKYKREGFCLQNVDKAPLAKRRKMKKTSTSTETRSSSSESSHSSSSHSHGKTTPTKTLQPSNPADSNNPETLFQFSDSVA

[11] = molecular target: Mitogen-activated protein kinase kinase kinase 9 (Homo sapiens) (UniProt P80192); test: Inhibition of MLK1 (unknown origin) assessed as remaining activity at 1 uM by Kinome scan method relative to control
[12] = molecular target: Dual specificity protein kinase CLK4 (Homo sapiens) (UniProt Q9HAZ1); test: Inhibition of human CLK4 assessed as residual activity at 1 uM using MBP as substrate in presence of 33P-ATP by ProQinase assay relative to control
Dual specificity protein kinase CLK4 (Homo sapiens), sequence (Q9HAZ1 whole entry, looked up): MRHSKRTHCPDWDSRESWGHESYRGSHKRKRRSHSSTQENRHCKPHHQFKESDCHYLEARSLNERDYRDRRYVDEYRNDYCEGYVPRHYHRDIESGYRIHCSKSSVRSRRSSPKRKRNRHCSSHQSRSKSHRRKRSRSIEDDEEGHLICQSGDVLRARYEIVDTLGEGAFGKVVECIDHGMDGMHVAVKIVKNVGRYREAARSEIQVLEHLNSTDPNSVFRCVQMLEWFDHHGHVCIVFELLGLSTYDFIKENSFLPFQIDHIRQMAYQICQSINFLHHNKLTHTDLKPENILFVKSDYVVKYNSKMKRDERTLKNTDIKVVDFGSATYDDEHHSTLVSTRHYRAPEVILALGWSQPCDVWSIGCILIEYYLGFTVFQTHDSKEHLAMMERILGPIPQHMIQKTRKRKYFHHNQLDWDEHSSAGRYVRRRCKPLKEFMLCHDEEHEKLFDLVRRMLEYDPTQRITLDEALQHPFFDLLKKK

[13] = molecular target: Serine/threonine-protein kinase Nek9 (Homo sapiens) (UniProt Q8TD19); test: Inhibition of NEK9 (unknown origin) assessed as remaining activity at 1 uM by Kinome scan method relative to control
[14] = molecular target: Proto-oncogene tyrosine-protein kinase receptor Ret (Homo sapiens) (UniProt P07949); test: Inhibition of human RET assessed as residual activity at 1 uM using polyEY as substrate in presence of 33P-ATP by ProQinase assay relative to control
[15] = molecular target: Tyrosine-protein kinase receptor TYRO3 (Homo sapiens) (UniProt Q06418); test: Inhibition of TYRO3 (unknown origin) assessed as remaining activity at 1 uM by Kinome scan method relative to control
[16] = molecular target: T1, Testis-specific serine/threonine-protein kinase 1 (Homo sapiens) (UniProt Q9BXA7); test: Inhibition of human TSSK1 assessed as residual activity at 1 uM using RBER-CHKtide as substrate in presence of 33P-ATP by ProQinase assay relative to control
T1 sequence (whole entry): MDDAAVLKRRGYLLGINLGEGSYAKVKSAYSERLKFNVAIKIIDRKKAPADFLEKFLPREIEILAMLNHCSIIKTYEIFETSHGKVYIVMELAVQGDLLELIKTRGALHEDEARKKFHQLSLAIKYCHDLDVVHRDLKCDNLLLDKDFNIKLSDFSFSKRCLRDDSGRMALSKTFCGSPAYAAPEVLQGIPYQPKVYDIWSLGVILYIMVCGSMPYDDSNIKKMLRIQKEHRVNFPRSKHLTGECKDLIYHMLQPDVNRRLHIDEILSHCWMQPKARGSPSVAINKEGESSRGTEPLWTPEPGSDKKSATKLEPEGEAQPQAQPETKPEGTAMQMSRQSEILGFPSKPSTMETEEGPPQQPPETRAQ

[17] = molecular target: Tyrosine-protein kinase JAK1 (Homo sapiens) (UniProt P23458); test: Inhibition of human JAK1 assessed as residual activity at 1 uM using RBER-IRStide as substrate in presence of 33P-ATP by ProQinase assay relative to control
[18] = test system: Epidermal growth factor receptor (Homo sapiens), P00533 [UNDEFINED MUTATION]; test: Inhibition of human EGFR d747-752/P753S mutant assessed as residual activity at 1 uM using PolyEY as substrate in presence of 33P-ATP by ProQinase assay relative to control
Epidermal growth factor receptor (Homo sapiens), P00533 [UNDEFINED MUTATION], sequence (P00533 whole entry, looked up, stated change not applied): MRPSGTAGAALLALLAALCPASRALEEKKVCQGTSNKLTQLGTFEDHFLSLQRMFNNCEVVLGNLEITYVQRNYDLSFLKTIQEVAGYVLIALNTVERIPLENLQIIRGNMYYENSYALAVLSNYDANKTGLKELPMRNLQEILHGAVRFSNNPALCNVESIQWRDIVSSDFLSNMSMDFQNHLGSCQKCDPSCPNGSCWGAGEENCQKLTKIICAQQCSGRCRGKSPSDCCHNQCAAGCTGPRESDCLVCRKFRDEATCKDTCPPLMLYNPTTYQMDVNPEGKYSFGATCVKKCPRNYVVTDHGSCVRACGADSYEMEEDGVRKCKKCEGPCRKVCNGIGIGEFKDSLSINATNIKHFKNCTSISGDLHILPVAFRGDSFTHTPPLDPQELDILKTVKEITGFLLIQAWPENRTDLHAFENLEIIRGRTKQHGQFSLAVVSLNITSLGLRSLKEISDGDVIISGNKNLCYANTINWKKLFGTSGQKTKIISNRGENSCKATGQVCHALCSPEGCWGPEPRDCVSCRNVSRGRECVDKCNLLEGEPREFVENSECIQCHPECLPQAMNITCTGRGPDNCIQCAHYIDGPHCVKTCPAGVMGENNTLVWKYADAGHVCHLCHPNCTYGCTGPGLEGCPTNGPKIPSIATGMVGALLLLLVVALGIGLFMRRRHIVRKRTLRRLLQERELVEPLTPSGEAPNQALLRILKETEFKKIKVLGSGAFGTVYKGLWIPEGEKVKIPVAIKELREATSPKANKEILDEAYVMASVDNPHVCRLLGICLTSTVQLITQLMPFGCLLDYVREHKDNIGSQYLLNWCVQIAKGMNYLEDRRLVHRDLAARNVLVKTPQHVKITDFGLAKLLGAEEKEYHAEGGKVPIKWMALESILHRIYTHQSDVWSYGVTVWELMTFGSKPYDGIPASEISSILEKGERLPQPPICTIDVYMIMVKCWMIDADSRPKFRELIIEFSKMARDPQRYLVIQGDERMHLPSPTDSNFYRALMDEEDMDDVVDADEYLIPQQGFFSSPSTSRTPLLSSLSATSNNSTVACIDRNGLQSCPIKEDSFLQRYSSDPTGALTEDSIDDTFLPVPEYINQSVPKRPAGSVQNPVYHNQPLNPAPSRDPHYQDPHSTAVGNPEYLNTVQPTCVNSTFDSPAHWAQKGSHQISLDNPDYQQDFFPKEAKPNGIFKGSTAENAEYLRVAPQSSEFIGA

[19] = molecular target: Fibroblast growth factor receptor 4 (Homo sapiens) (UniProt P22455); test: Inhibition of human FGFR4 assessed as residual activity at 1 uM using polyEy as substrate in presence of 33P-ATP by ProQinase assay relative to control
[20] = molecular target: Serine/threonine-protein kinase Nek6 (Homo sapiens) (UniProt Q9HC98); test: Inhibition of human NEK6 assessed as residual activity at 1 uM using RBER-GSK3 as substrate in presence of 33P-ATP by ProQinase assay relative to control
[21] = molecular target: Serine/threonine-protein kinase Nek5 (Homo sapiens) (UniProt Q6P3R8); test: Inhibition of NEK5 (unknown origin) assessed as remaining activity at 1 uM by Kinome scan method relative to control
[22] = molecular target: Ephrin type-A receptor 5 (Homo sapiens) (UniProt P54756); test: Inhibition of human EPHA5 assessed as residual activity at 1 uM using polyEY as substrate in presence of 33P-ATP by ProQinase assay relative to control
[23] = molecular target: Calcium/calmodulin-dependent protein kinase type II subunit alpha (Homo sapiens) (UniProt Q9UQM7); test: Inhibition of human CAMK2A assessed as residual activity at 1 uM using RBER-CHKtide as substrate in presence of 33P-ATP by ProQinase assay relative to control
Calcium/calmodulin-dependent protein kinase type II subunit alpha (Homo sapiens), sequence (Q9UQM7 whole entry): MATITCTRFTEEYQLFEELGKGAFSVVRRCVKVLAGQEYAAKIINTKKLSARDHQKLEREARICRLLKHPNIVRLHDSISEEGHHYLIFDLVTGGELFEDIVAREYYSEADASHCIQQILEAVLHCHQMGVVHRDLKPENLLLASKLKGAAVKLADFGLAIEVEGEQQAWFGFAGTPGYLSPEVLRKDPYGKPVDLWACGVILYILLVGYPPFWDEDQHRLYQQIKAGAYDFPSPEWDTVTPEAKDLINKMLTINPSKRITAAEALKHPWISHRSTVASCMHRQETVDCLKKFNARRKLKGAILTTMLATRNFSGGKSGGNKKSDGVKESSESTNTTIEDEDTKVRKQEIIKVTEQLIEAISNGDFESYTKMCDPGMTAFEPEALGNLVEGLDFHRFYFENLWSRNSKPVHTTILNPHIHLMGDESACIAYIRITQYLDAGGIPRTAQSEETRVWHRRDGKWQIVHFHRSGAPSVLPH

[24] = test system: Serine/threonine-protein kinase B-raf (Homo sapiens), P15056 [V600E]; test: Inhibition of BRAF V600E mutant (unknown origin) assessed as remaining activity at 1 uM by Kinome scan method relative to control
Serine/threonine-protein kinase B-raf (Homo sapiens), P15056 [V600E], sequence (P15056 whole entry V600E): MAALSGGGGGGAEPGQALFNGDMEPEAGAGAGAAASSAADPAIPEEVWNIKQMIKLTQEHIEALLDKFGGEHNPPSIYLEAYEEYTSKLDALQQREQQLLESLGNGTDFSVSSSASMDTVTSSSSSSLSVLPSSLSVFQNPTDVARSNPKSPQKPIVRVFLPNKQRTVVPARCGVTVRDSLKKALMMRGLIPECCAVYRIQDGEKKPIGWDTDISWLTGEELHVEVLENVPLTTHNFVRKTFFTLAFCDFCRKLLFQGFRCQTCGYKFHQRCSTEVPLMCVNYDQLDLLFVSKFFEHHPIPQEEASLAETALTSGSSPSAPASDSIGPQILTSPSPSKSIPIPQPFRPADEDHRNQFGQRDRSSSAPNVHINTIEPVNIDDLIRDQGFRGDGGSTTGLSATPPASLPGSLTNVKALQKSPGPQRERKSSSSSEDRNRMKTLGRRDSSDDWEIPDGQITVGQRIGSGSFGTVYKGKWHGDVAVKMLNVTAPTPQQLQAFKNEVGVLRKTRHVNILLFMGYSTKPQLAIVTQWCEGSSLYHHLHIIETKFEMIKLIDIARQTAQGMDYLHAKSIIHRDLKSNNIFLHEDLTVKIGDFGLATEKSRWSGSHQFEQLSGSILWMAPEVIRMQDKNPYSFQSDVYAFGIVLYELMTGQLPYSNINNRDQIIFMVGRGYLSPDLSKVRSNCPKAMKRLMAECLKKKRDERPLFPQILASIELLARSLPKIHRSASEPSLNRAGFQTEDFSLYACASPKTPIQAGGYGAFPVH

O=C1c2ccc(Nc3ccc(F)cc3F)cc2CCc2ccc(OC[C@H](O)CO)cc21 [Skepinone-L]
Activity [1]: 100%
Activity [2]: 121%
Activity [3]: 96%
Activity [4]: 100%
Activity [5]: 100%
inhibition in vivo at 3 mg/kg (Mus musculus): 77%
Activity [6]: 98%
Activity [7]: 93%
Activity [8]: 91%
Activity [9]: 93%
Activity [10]: 92%
Activity [11]: 100%
Activity [12]: 100%
Activity [13]: 89%
Activity [14]: 102%
Activity [15]: 100%
Activity [16]: 90%
Activity [17]: 93%
Activity [18]: 93%
Activity [19]: 103%
Activity [20]: 97%
Activity [21]: 100%
Activity [22]: 132%
Activity [23]: 83%
Activity [24]: 100%
